Where two headings read alike, the source gives them in different places.

Common to all, as to type: biochemical
The target in experiment [1] is T1, Aβ 1-42 fibrils (Homo sapiens, UniProt P05067).
T1 construct: purchased Bachem Inc
Kind of experiment: Thioflavin T fluorometry - disruption of pre-formed Aβ 1-42 Alzheimer's fibrils. The conditions noted are these: 25 μM pre-fibrillized Aβ 1-42, 37° C., 3 days; for inhibition: read-out: % Inhibition Aβ (result ± S.D.). The source says:
In one study, Thioflavin T fluorometry was used to determine the effects of the compounds, and of EDTA (as a negative control). In this assay Thioflavin T binds specifically to fibrillar amyloid, and this binding produces a fluorescence enhancement at 485 nm that is directly proportional to the amount of amyloid fibrils formed. The higher the fluorescence, the greater the amount of amyloid fibrils formed (Naki et al., Lab. Invest. 65:104-110, 1991; Levine III, Protein Sci. 2:404-410, 1993; Amyloid: Int. J. Exp. Clin. Invest. 2:1-6, 1995).
(§1) In this study, 25 μM of pre-fibrillized Aβ 1-42 (Bachem Inc) was incubated at 37° C. for 3 days either alone, or in the presence of one of the compounds or EDTA (at Aβ:test compound weight ratios of 1:1, 1:0.1, 1:0.01 or 1:0.001). Following 3-days of co-incubation, 50 μl of each incubation mixture was transferred into a 96-well microtiter plate containing 150 μl of distilled water and 50 μl of a Thioflavin T solution (i.e. 500 mM Thioflavin T in 250 mM phosphate buffer, pH 6.8). The fluorescence was read at 485 nm (444 nm excitation wavelength) using an ELISA plate fluorometer after subtraction with buffer alone or compound alone, as blank.

A further experiment has as its target T2, monomeric Aβ 1-42 (Homo sapiens, UniProt P05067).
T2 construct: purchased Bachem Inc
Kind of experiment: SDS-PAGE/Western blot of Aβ 1-42 after incubation with compounds. The note with it: 25 μM pre-fibrillized Aβ 1-42, 37° C., 3 days, 0.2 μm filtrate, antibody 6E10. As to the method: In this latter study, triplicate samples of pre-fibrillized Aβ 1-42 (25 μM) was incubated at 37° C. for 3 days, alone or in the presence of the compounds or EDTA. Five micrograms of each sample was then filtered through a 0.2 μm filter. Protein recovered from the filtrate was then loaded, and ran on a 10-20% Tris-Tricine SDS-PAGE, blotted to nitrocellulose and detected using an Aβ-antibody (clone 6E10; Senetek).

The target in experiment [2] is T1, Aβ 1-42 fibrils. Kind of experiment: Congo red binding assay with Aβ 1-42 fibrils. The conditions noted are these: 3-day incubation. As to the method: (§2) In the Congo red binding assay the ability of a test compound to alter amyloid (in this case, Aβ) binding to Congo red is quantified. In this assay, Aβ 1-42 and test compounds were incubated for 3 days and then vacuum filtered through a 0.2 μm filter. The amount of Aβ 1-42 retained in the filter was then quantitated following staining of the filter with Congo red. After appropriate washing of the filter, any lowering of the Congo red color on the filter in the presence of the test compound (compared to the Congo red staining of the amyloid protein in the absence of the test compound) was indicative of the test compound's ability to diminish/alter the amount of aggregated and congophilic Aβ.
In one study, the ability of Aβ fibrils to bind Congo red in the absence or presence of increasing amounts of the compounds or EDTA (at Aβ:test compound weight ratios of 1:1, 1:0.1, 1:0.01 or 1:0.001) was determined.

The target of experiment [3] is T3, IAPP fibrils (Homo sapiens, UniProt P10997).
T3 construct: purchased Bachem Inc
T3 sequence (P10997 34-70 limits assumed): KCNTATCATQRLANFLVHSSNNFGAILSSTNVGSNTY
Kind of experiment: Thioflavin T fluorometry - disruption of type 2 diabetes IAPP fibrils. The note with it: 25 μM pre-fibrillized IAPP, 37° C., 3 days; for inhibition: read-out: % Inhibition IAPP (result ± S.D.). As to the method:
In this assay Thioflavin T binds specifically to fibrillar amyloid, and this binding produces a fluorescence enhancement at 485 nm that is directly proportional to the amount of IAPP fibrils present. The higher the fluorescence, the greater the amount of IAPP fibrils present (Naki et al, Lab. Invest. 65:104-110, 1991; Levine III, Protein Sci. 2:404-410, 1993; Amyloid: Int. J. Exp. Clin. Invest. 2:1-6, 1995).
as §1, with “IAPP” for “Aβ 1-42”, “IAPP:test” for “Aβ:test”

Experiment [4] concerns the target T3, IAPP fibrils. Description: Congo red binding assay with IAPP fibrils. The note with it: 3-day incubation. As to the method: as §2, with “of a given test compound” for “of a test compound”, “this case, IAPP) binding to” for “this case, Aβ) binding to”, “this assay, IAPP and test” for “this assay, Aβ 1-42 and test”, “amount of IAPP retained in” for “amount of Aβ 1-42 retained in”, “and congophilic IAPP.” for “and congophilic Aβ.”
In the study, the ability of IAPP fibrils to bind Congo red in the absence or presence of increasing amounts of the compounds or EDTA (at IAPP:test compound weight ratios of 1:1, 1:0.1, 1:0.01 or 1:0.001) was determined.

A further experiment addresses T4, NAC fibrils (Homo sapiens, UniProt P37840).
T4 construct: NAC is a 35-amino acid fragment of α-synuclein; purchased Bachem Inc
Description: Thioflavin T fluorometry - disruption of Parkinson's disease NAC fibrils. The note with it: 3 days; for inhibition: 25 μM pre-fibrillized NAC, 37° C., read-out: % Inhibition NAC (result ± S.D.). As to the method: In this assay, Thioflavin T binds specifically to NAC fibrils, and this binding produces a fluorescence enhancement at 485 nm that is directly proportional to the amount of NAC fibrils present. The higher the fluorescence, the greater the amount of NAC fibrils present (Naki et al, Lab. Invest. 65:104-110, 1991; Levine III, Protein Sci. 2:404-410, 1993; Amyloid: Int. J. Exp. Clin. Invest. 2:1-6, 1995).
In this study, 25 μM of pre-fibrillized NAC (Bachem Inc) was incubated at 37° C. for 3 days either alone or in the presence of dihydroxy synthetic analog compounds #1, 3, 23, 26, 52, 63, 66, 67, or EDTA (at NAC:test compound weight ratios of 1:1, 1:0.1, 1:0.01 or 1:0.001). Following 3-days of co-incubation, 50 βl of each incubation mixture was transferred into a 96-well microtiter plate containing 150 μl of distilled water and 50 μl of a Thioflavin T solution (i.e. 500 mM Thioflavin T in 250 mM phosphate buffer, pH 6.8). The fluorescence was read at 485 nm (444 nm excitation wavelength) using an ELISA plate fluorometer after subtraction with buffer alone or compound alone, as blank.

The mark [5] stands for this setting: Aβ:test compound wt/wt ratio 1:0.001.
Where [6] appears, read: Aβ:test compound wt/wt ratio 1:0.01.
Setting [7] is: Aβ:test compound wt/wt ratio 1:0.1.
The mark [8] stands for this setting: Aβ:test compound wt/wt ratio 1:1.
Where [9] appears, read: IAPP:test compound wt/wt ratio 1:0.001.
[10] abbreviates: IAPP:test compound wt/wt ratio 1:0.01.
Setting [11] is: IAPP:test compound wt/wt ratio 1:0.1.
[12] abbreviates: IAPP:test compound wt/wt ratio 1:1.

T2 sequence (P05067 672-713): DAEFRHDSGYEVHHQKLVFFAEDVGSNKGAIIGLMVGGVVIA
T1 sequence (P05067 672-713): as above

In the case of `CN1C2CCC1C(Cc1ccc(O)c(O)c1)C(=O)C2Cc1ccc(O)c(O)c1` (stereo not shown) [Compound 19, 2,4-bis(3,4-dihydroxybenzyl)-3-tropinone], the “% Inhibition Aβ (result ± S.D.)” value is given as 10.8 ± 1.38% on Aβ 1-42 fibrils [1] (setting [5]), 46.2 ± 2.98% at Aβ 1-42 fibrils [1] (setting [6]), 91.1 ± 0.66% at Aβ 1-42 fibrils [1] (setting [7]) and 99.1 ± 0.56% on Aβ 1-42 fibrils [1] (setting [8]). At monomeric Aβ 1-42, the “detection of Aβ 1-42 monomers (~4 kilodalton band) on Western blot” value (from here on “detection of Aβ 1-42 monomers”) is recorded as “not detected”. The entries for the “% Inhibition Aβ (result ± S.D.), Congo red binding” value on Aβ 1-42 fibrils [2] (setting [6]), at Aβ 1-42 fibrils [2] (setting [7]) and on Aβ 1-42 fibrils [2] (setting [8]) were 7.4 ± 2.20%, 22.4 ± 2.19% and 48.1 ± 2.00%, respectively. Further, the “% Inhibition IAPP (result ± S.D.)” value at IAPP fibrils [3] (setting [9]) came to 16.7 ± 10.20%; on IAPP fibrils [3] (setting [10]) it was 51.7 ± 2.98%; at IAPP fibrils [3] (setting [11]), 94.0 ± 0.10%; at IAPP fibrils [3] (setting [12]), 100.0 ± 0.24%. For the same molecule, the “% Inhibition IAPP (result ± S.D.), Congo red binding” value on IAPP fibrils [4] (setting [10]) was 6.0 ± 0.78%; at IAPP fibrils [4] (setting [11]), 21.0 ± 3.70%; at IAPP fibrils [4] (setting [12]), 49.3 ± 3.97%.

The inhibition is the drop in the measured response relative to a control, in per cent. For `O=C(CCC(=O)Nc1ccc(O)c(O)c1)Nc1ccc(O)c(O)c1` [Compound 66, succinic acid bis(3,4-dihydroxyanilide)], the inhibition is 27.1 ± 3.51% at Aβ 1-42 fibrils [1] (setting [5]); 42 ± 2.36% at Aβ 1-42 fibrils [1] (setting [6]); 78.3 ± 4.17% at Aβ 1-42 fibrils [1] (setting [7]); 100 ± 0.68% on Aβ 1-42 fibrils [1] (setting [8]); 11.1 ± 5.28% on IAPP fibrils [3] (setting [9]); 47.6 ± 8.16% on IAPP fibrils [3] (setting [10]). In addition, the inhibition on IAPP fibrils [3] (setting [11]) worked out at 94 ± 2.88%; on IAPP fibrils [3] (setting [12]), 98.5 ± 0.06%; at NAC fibrils (NAC:test compound wt/wt ratio 1:0.001) it was 30.5 ± 9.55%; at NAC fibrils (NAC:test compound wt/wt ratio 1:0.01), 43.4 ± 3.45%; at NAC fibrils (NAC:test compound wt/wt ratio 1:0.1) it was 82.5 ± 5.37%; at NAC fibrils (NAC:test compound wt/wt ratio 1:1) it was 98.9 ± 0.65%. At monomeric Aβ 1-42, the “detection of Aβ 1-42 monomers” value is on record as “not detected”. Further, the “% Inhibition IAPP (result ± S.D.), Congo red binding” value was 4.8 ± 1.86% on IAPP fibrils [4] (setting [9]), 5.7 ± 4.23% on IAPP fibrils [4] (setting [10]), 15.7 ± 2.53% at IAPP fibrils [4] (setting [11]) and 41.4 ± 3.84% on IAPP fibrils [4] (setting [12]). In addition, the “disruption/disassembly of pre-formed NAC fibrils (in words)” value on NAC fibrils (all concentrations tested (ratios 1:1 to 1:0.001)) was “dose-dependent disruption/disassembly”.

In the case of `O=C(CCc1ccc(O)c(O)c1)NCc1ccc(O)c(O)c1` [Compound 58, 3-(3,4-dihydroxyphenyl)propionic acid 3,4-dihydroxybenzylamide], the inhibition at Aβ 1-42 fibrils [1] (setting [5]) was 20.5 ± 6.27%; on Aβ 1-42 fibrils [1] (setting [6]), 33.2 ± 5.16%; at Aβ 1-42 fibrils [1] (setting [7]), 76 ± 2.57%; at Aβ 1-42 fibrils [1] (setting [8]) it was 94.8 ± 1.67%; on IAPP fibrils [3] (setting [9]) it was 8.9 ± 6.87%; on IAPP fibrils [3] (setting [10]), 48.8 ± 2.05%. Also, the inhibition on IAPP fibrils [3] (setting [11]) is 87.6 ± 1.16%; on IAPP fibrils [3] (setting [12]), 98.1 ± 1.04%. Further, the “detection of Aβ 1-42 monomers” value on monomeric Aβ 1-42 is “not detected”. Also, the “% Inhibition IAPP (result ± S.D.), Congo red binding” value at IAPP fibrils [4] (setting [9]) stood at 0.0 ± 1.93%; on IAPP fibrils [4] (setting [10]), 4.6 ± 2.35%; on IAPP fibrils [4] (setting [11]), 0.7 ± 6.21%; on IAPP fibrils [4] (setting [12]) it was 24.5 ± 0.57%.

Source of the values: patent US20070276034A1, “Compounds, compositions and methods for the treatment of synucleinopathies” (priority 2002, published 2007).
